According to US9321767B2, “Azabenzimidazoles as respiratory syncytial virus antiviral agents” (JANSSEN SCIENCES IRELAND UC, priority 2010, dated 2016):
Where two headings read alike, the source gives them in different places.

How the values were obtained:
HeLa cells = assay: Cytotoxicity in HeLa cells, ATP content (ATPlite kit); assay type: cell-based
Description: (§1) Black 96-well clear-bottom microtiter plates (Corning, Amsterdam, The Netherlands) were filled in duplicate using a customized robot system with serial 4-fold dilutions of compound in a final volume of 50 μl culture medium [RPMI medium without phenol red, 10% FBS, 0.04% gentamycin (50 mg/mL) and 0.5% DMSO]. Then, 100 μl of a HeLa cell suspension (5×10^4 cells/mL) in culture medium was added to each well followed by the addition of 50 μl rgRSV224 (MOI=0.02) virus in culture medium using a multidrop dispenser (Thermo Scientific, Erembodegem, Belgium). rgRSV224 virus is an engineered virus that includes an additional GFP gene (Hallak et al, 2000) and was in-licensed from the NIH (Bethesda, Md., USA). Medium, virus- and mock-infected controls were included in each test. Cells were incubated at 37° C. in a 5% CO2 atmosphere. Three days post-virus exposure, viral replication was quantified by measuring GFP expression in the cells by a MSM laser microscope (Tibotec, Beerse, Belgium). The EC50 was defined as the 50% inhibitory concentration for GFP expression. In parallel, compounds were incubated for three days in a set of white 96-well microtitier plates (Corning) and the cytotoxicity of compounds in HeLa cells was determined by measuring the ATP content of the cells using the ATPlite kit (PerkinElmer, Zaventem, Belgium) according to the manufacturer's instructions. The CC50 was defined as the 50% concentration for cytotoxicity.

rgRSV224 virus = assay: microbe, parasite or virus in culture; assay type: cell-based, respiratory syncytial virus (RSV); conditions: for SI CC50/EC50: ratio of CC50 (HeLa cytotoxicity) to EC50 (RSV)
Description: as §1

[1] = HeLa cells, three days incubation, ATP content
[2] = human respiratory syncytial virus, HeLa, 72 h, read-out: RSV-wt_EC50
[3] = rgRSV224 in HeLa cells, three days post-virus exposure, GFP expression, read-out: WT activity EC50
[4] = human respiratory syncytial virus, HeLa, 72 h, read-out: WT activity EC50

Structure (SMILES) | SI CC50/EC50 (rgRSV224 virus) | EC50 (rgRSV224 virus; [3]) | other results
COCCCn1c(Cn2c(=O)n(C3CC3)c3ccc(F)cc32)nc2ncccc21 [Compound 15, 1-cyclopropyl-5-fluoro-3-((1-(3-methoxypropyl)-1H-imidazo[4,5-b]pyridin-2-yl)methyl)-1H-benzo[d]imidazol-2(3H)-one] | – | – | TOX-HELA_EC50 (HeLa cells; [1]): >98.3603 µM; EC50 (rgRSV224 virus; [2]): 220 nM
O=C(NCCCCn1c(Cn2c(=O)n(C3CC3)c3ccncc32)nc2nc(Cl)ccc21)OCCF [Compound 76] | >24518 | 4.08 nM | –
CC(C)CCn1c(Cn2c(=O)n(CC(F)(F)F)c3ccc(F)cc32)nc2nc(Cl)ccc21 [Compound 92] | 13572 | 6.72 nM | –
CC(C)CCn1c(Cn2c(=O)n(C3CC3)c3ccncc32)nc2cccnc21 [Compound 24, 1-cyclopropyl-3-((3-isopentyl-3H-imidazo[4,5-b]pyridin-2-yl)methyl)-1H-imidazo[4,5-c]pyridin-2(3H)-one] | – | – | TOX-HELA_EC50 (HeLa cells; [1]): >98.3603 µM; EC50 (rgRSV224 virus; [2]): 1220 nM
O=c1n(Cc2nc3nc(Cl)ccc3n2CCCC(F)(F)F)c2cnccc2n1C1CC1 [Compound 39, 3-((5-chloro-1-(4,4,4-trifluorobutyl)-1H-imidazo[4,5-b]pyridin-2-yl)methyl)-1-cyclopropyl-1H-imidazo[4,5-c]pyridin-2(3H)-one] | – | – | TOX-HELA_EC50 (HeLa cells; [1]): >98.3603 µM; EC50 (rgRSV224 virus; [2]): 0.96 nM
CC(C)CCn1c(Cn2c(=O)n(C3CC3)c3ccncc32)nc2ccncc21 [Compound 34] | – | – | TOX-HELA_EC50 (HeLa cells; [1]): >98.3603 µM; EC50 (rgRSV224 virus; [2]): 74 nM
O=c1n(Cc2nc3nc(Cl)ccc3n2CCCC(F)(F)F)c2cnccc2n1CC(F)(F)F [Compound 71] | >108383 | 0.923 nM | –
CS(=O)(=O)CCCn1c(Cn2c(=O)n(C3CC3)c3ccncc32)nc2ncccc21 [Compound 7, 1-cyclopropyl-3-((1-(3-(methylsulfonyl)propyl)-1H-imidazo[4,5-b]pyridin-2-yl)methyl)-1H-imidazo[4,5-c]pyridin-2(3H)-one] | – | – | TOX-HELA_EC50 (HeLa cells; [1]): >9.836 µM; EC50 (rgRSV224 virus; [2]): 13.7 nM
NC(=O)NCCCCn1c(Cn2c(=O)n(C3CC3)c3ccncc32)nc2nc(Cl)ccc21 [Compound 74] | >1997 | 5.01 nM | –
CC(C)CCn1c(Cn2c(=O)n(C3CC3)c3ccc(F)cc32)nc2cnccc21 [Compound 32] | – | – | TOX-HELA_EC50 (HeLa cells; [1]): >9.836 µM; EC50 (rgRSV224 virus; [2]): 11.3 nM
O=C(Nc1ccc(Cl)cc1)OCCCCn1c(Cn2c(=O)n(C3CC3)c3ccncc32)nc2nc(Cl)ccc21 [Compound 86] | 263 | 36.8 nM | –
CC(C)C(=O)OCCCCn1c(Cn2c(=O)n(C3CC3)c3ccncc32)nc2nc(Cl)ccc21 [Compound 65] | >18110 | 5.52 nM | –
COC(=O)c1cnc2c(c1)nc(Cn1c(=O)n(C3CC3)c3ccncc31)n2CCC(C)C [Compound 26, methyl 2-((1-cyclopropyl-2-oxo-1H-imidazo[4,5-c]pyridin-3(2H)-yl)methyl)-3-isopentyl-3H-imidazo[4,5-b]pyridine-6-carboxylate] | – | – | TOX-HELA_EC50 (HeLa cells; [1]): >98.3603 µM; EC50 (rgRSV224 virus; [2]): 8610 nM
O=c1n(Cc2nc3ncccc3n2CCCc2ccccn2)c2cnccc2n1C1CC1 [Compound 94] | >748 | 126 nM | –
COCCCn1c(Cn2c(=O)n(C3CC3)c3ccncc32)nc2ncccc21 [Compound 10] | – | – | TOX-HELA_EC50 (HeLa cells; [1]): 4.756 µM; EC50 (rgRSV224 virus; [2]): 89.3 nM
O=c1n(Cc2nc3ncccc3n2CCCc2ccccc2)c2cnccc2n1C1CC1 [Compound 91] | >8223 | 12.2 nM | –
CC(C)CCn1c(Cn2c(=O)n(C3CC3)c3ccncc32)nc2cc(B(O)O)cnc21 [Compound 23, 2-((1-cyclopropyl-2-oxo-1H-imidazo[4,5-c]pyridin-3(2H)-yl)methyl)-3-isopentyl-3H-imidazo[4,5-b]pyridin-6-ylboronic acid] | – | – | TOX-HELA_EC50 (HeLa cells; [1]): >98.3603 µM; EC50 (rgRSV224 virus; [2]): 645 nM
O=c1n(Cc2nc3cnccc3n2CCCCO)c2cnccc2n1C1CC1 [Compound 35] | – | – | TOX-HELA_EC50 (HeLa cells): >98.3603 µM; EC50 (rgRSV224 virus; rgRSV224 in HeLa cells, three days post-virus exposure, GFP expression, read-out: RSV-wt_EC50): 79.5 nM
CC(C)CCn1c(Cn2c(=O)n(CC(F)(F)F)c3ccncc32)nc2nc(Cl)ccc21 [Compound 90] | 36156 | 2.6 nM | –
O=C(NC1CCCC1)OCCCCn1c(Cn2c(=O)n(C3CC3)c3ccncc32)nc2nc(Cl)ccc21 [Compound 78] | 14406 | 5.73 nM | –
COc1ccc(NC(=O)OCCCCn2c(Cn3c(=O)n(C4CC4)c4ccncc43)nc3nc(Cl)ccc32)cc1 [Compound 79] | 1711 | 23.3 nM | –
CC(O)CCCn1c(Cn2c(=O)n(C3CC3)c3ccncc32)nc2nc(Cl)ccc21 (stereo not drawn) [Compound 67, 3-{[5-chloro-1-(4-hydroxypentyl)-1H-imidazo[4,5-b]pyridin-2-yl]methyl}-1-cyclopropyl-1,3-dihydro-2H-imidazo[4,5-c]pyridin-2-one] | >12643 | – | EC50 (rgRSV224 virus; [4]): 7.91 nM

Structure (SMILES) | SI CC50/EC50 (rgRSV224 virus) | EC50 (rgRSV224 virus; [3]) | other results
O=C(Nc1ccc(F)cc1C(F)(F)F)OCCCCn1c(Cn2c(=O)n(C3CC3)c3ccncc32)nc2nc(Cl)ccc21 [Compound 83] | 4731 | 14 nM | –
O=c1n(Cc2nc3ncccc3n2CCCC(F)F)c2cnccc2n1C1CC1 [Compound 43, 1-cyclopropyl-3-((1-(4,4-difluorobutyl)-1H-imidazo[4,5-b]pyridin-2-yl)methyl)-1H-imidazo[4,5-c]pyridin-2(3H)-one] | 7161 | – | EC50 (rgRSV224 virus; [4]): 7.91 nM
COC(=O)c1nccc2c1n(Cc1nc3nc(Cl)ccc3n1CCCCO)c(=O)n2C1CC1 [Compound 62] | >339 | – | EC50 (rgRSV224 virus; [4]): 294 nM
O=c1n(Cc2nc3ncccc3n2CCCc2ccccc2)c2cc(F)ccc2n1C1CC1 [Compound 93] | >3176 | 31.5 nM | –
N#CCCCn1c(Cn2c(=O)n(C3CC3)c3ccncc32)nc2ccc(Cl)nc21 [Compound 49] | >68 | – | EC50 (rgRSV224 virus; [4]): 1450 nM
CC(C)OC(=O)NCCCCn1c(Cn2c(=O)n(C3CC3)c3ccncc32)nc2ncccc21 [Compound 81] | >1380 | 72.4 nM | –
CC1=C(NCCCCn2c(Cn3c(=O)n(C4CC4)c4ccncc43)nc3nc(Cl)ccc32)c2ccccc2S1(=O)=O [Compound 80] | >9628 | 10.4 nM | –
CC(C)CCn1c(Cn2c(=O)n(C3CC3)c3ccccc32)nc2cc(Br)cnc21 [Compound 30, 1-((6-bromo-3-isopentyl-3H-imidazo[4,5-b]pyridin-2-yl)methyl)-3-cyclopropyl-1H-benzo[d]imidazol-2(3H)-one] | – | – | TOX-HELA_EC50 (HeLa cells; [1]): >9.84 µM
O=c1n(Cc2nc3ncccc3n2CCCOC(F)(F)F)c2cnccc2n1C1CC1 [Compound 70] | >9116 | 11 nM | –
CC(C)(CO)CCn1c(Cn2c(=O)n(C3CC3)c3ccncc32)nc2nc(Cl)ccc21 [Compound 88] | >4517 | 11.1 nM | –
O=C1c2ccccc2C(=O)N1CCCCn1c(Cn2c(=O)n(C3CC3)c3ccncc32)nc2nc(Cl)ccc21 [Compound 66] | >16939 | 5.9 nM | –
CC(=O)OCCCCn1c(Cn2c(=O)n(C3CC3)c3ccncc32)nc2nc(Cl)ccc21 [Compound 64] | >18058 | 5.54 nM | –
O=C(Nc1ccc(F)c(Cl)c1)OCCCCn1c(Cn2c(=O)n(C3CC3)c3ccncc32)nc2nc(Cl)ccc21 [Compound 84] | 354 | 18.9 nM | –
O=c1n(Cc2nc3nc(Cl)ccc3n2CCCC(F)(F)F)c2cc(F)ccc2n1CC(F)(F)F [Compound 87] | >49069 | 2.04 nM | –
CC(C)CCn1c(Cn2c(=O)n(C3CC3)c3ccncc32)nc2nc(C(=N)N)ccc21 [Compound 105] | >330179 | – | EC50 (rgRSV224 virus; [4]): 0.316 nM
COC(=O)NCCCCn1c(Cn2c(=O)n(C3CC3)c3ccncc32)nc2nc(Cl)ccc21 [Compound 68] | >12208 | 8.19 nM | –
O=c1n(Cc2nc3ncccc3n2CCCC(F)(F)F)c2cnccc2n1CC(F)(F)F [Compound 72] | >2766 | 3.61 nM | –
CC(C)(O)CCCn1c(Cn2c(=O)n(C3CC3)c3ccncc32)nc2nc(Cl)ccc21 [Compound 75, 3-((5-chloro-1-(4-hydroxy-4-methylpentyl)-1H-imidazo[4,5-b]pyridin-2-yl)methyl)-1-cyclopropyl-1H-imidazo[4,5-c]pyridin-2 (3H)-one] | >63325 | – | EC50 (rgRSV224 virus; [4]): 1.58 nM
O=c1n(Cc2nc3nc(F)ccc3n2CCCC(F)(F)F)c2cnccc2n1C1CC1 [Compound 69] | >1318 | 75.8 nM | –
O=C(NCCCCn1c(Cn2c(=O)n(C3CC3)c3ccncc32)nc2nc(Cl)ccc21)OC1CCCC1 [Compound 82] | 5649 | 17.1 nM | –
O=c1n(Cc2nc3ncccc3n2CCCC(F)(F)F)c2cc(F)ccc2n1CC(F)(F)F [Compound 89] | >2037 | 49.1 nM | –
O=c1n(Cc2nc3ncccc3n2CCCCF)c2cnccc2n1CC(F)(F)F [Compound 85] | 1436 | 8.54 nM | –
